Data on two compounds can be found in patent US9919002B2, “Methods and constructs for compound delivery” (North Carolina State University, priority 2013, dated 2018).

For one data set, the system named is HAase. Description: In vitro HAase-mediated TRAIL release and CD spectra. It counts as physicochemical. The note with it: TRAIL released from Gelipo versus native TRAIL. The protocol: 500 μL of rhodamine-labeled TRAIL-loaded Gelipo (r-TRAIL-Gelipo) was incubated with 500 μL of HAase (1 mg/mL) at pH 6.5 in a 37° C. water bath. At prearranged time intervals, free r-TRAIL in the filtrate was harvested using centrifugal filters (30K MWCO) (Millipore). The fluorescence intensity of r-TRAIL was determined at 585 nm with an excitation wavelength of 552 nm by a microplate reader (Infinite M200 PRO, Tecan). Additionally, the far-UV CD spectra of the native TRAIL and the released TRAIL from TRAIL Gelipo were obtained using a Circular Dichroism Spectrometer (Aviv).

A further data set concerns MDA-MB-231 cells. Description: Cell apoptosis assay (Annexin V-FITC, TUNEL), Example 2. It counts as cell-based, human. As to conditions: 12 h. The protocol: Apoptosis of MDA-MB-231 cells was detected using the Annexin V-FITC Apoptosis Detection Kit (BD Biosciences) and APO-BrdU TUNEL Assay Kit (Life Technologies), respectively. The cells (1×10^5 cells/well) were seeded in 6-well plates and cultured for 48 h. For Annexin V-FITC assay, the cells were incubated with different formulations for 12 h, including free TRAIL (2 or 20 ng/mL), TRAIL-Gelipo (20 ng/mL) with or without HAase-treatment, Dox-R8H3-L (100 ng/mL), TRAIL/Dox-Gelipo (2 ng/mL TRAIL, 100 ng/mL Dox) with HAase-treatment. For TUNEL assay, the cells were incubated with free TRAIL (2 ng/mL), Dox-R8H3-L (100 ng/mL) and TRAIL/Dox-Gelipo (2 ng/mL TRAIL, 100 ng/mL Dox) with HAase-treatment for 20 h, respectively. The following procedures were performed in accordance with the manufacturers' protocols. Finally, for Annexin V-FITC assay, the cells were analyzed by flow cytometry (BD FACSCalibur), while for TUNEL assay, the cells were observed by fluorescence microscope (IX71, Olympus).

Data set [1] relates to MDA-MB-231 tumor xenograft. Description: In vivo antitumor efficacy of Gelipo formulations. The note with it: i.v. 2 mg/kg Dox every other day for 12 days. Here is the method:
All animals were treated in accordance with the Guide for Care and Use of Laboratory Animals, approved by local committee. The female nude mice were subcutaneously inoculated in the back with MDA-MB-231 cells (1×10^7 cells/mouse) for the construction of the tumor xenograft model. The tumor size was monitored by a fine caliper and the tumor volume (V) was calculated as V=L×W^2/2, where L and W were the length and width of the tumor, respectively.
When the tumor volume reached to 50 mm^3, the mice were weighed, randomly divided into 4 groups, and intravenously administrated with the Dox solution (2 mg/kg), Dox-Gelipo (2 mg/kg), Dox/TRAIL-Gelipo (2 mg/kg Dox, 0.04 mg/kg TRAIL) and saline every other day for 12 days. The tumor size and body weight of the mice were measured at the meantime. At Day 14, the tumor were harvested from the mice after euthanasia, washed by saline thrice and then fixed in 10% neutral buffered formalin (NBF). For HE staining, formalin-fixed tumors were embedded in paraffin blocks and visualized by optical microscope (DM5500B, Leica). For TUNEL apoptosis staining, the fixed tumor sections were stained by the In Situ Cell Death Detection Kit (Roche Applied Science) according to the manufacturer's protocol. Hoechst 33342 was used for nuclear nuclear counterstaining. The stained tumor slides were observed by fluorescence microscope (IX71, Olympus).

[2] abbreviates: 20 ng/mL TRAIL, Annexin V-FITC/PI.

Consider “free TRAIL: His-ILZ-TRAIL (residues 114-281) produced in E. coli; TNF-related apoptosis-inducing ligand”, for which the “Secondary structure of released TRAIL (CD spectrum)” value with HAase is recorded as “no noticeable conformational changes in the secondary structure”. Further, the Apoptosis ratio with MDA-MB-231 cells (2 ng/mL TRAIL) turned out to be 36.48%. In the data set with MDA-MB-231 cells (setting [2]), the Apoptosis ratio is given as 51.71% and the Viability came to 32.30%.
`COc1cccc2c1C(=O)c1c(O)c3c(c(O)c1C2=O)C[C@@](O)(C(=O)CO)C[C@@H]3O[C@H]1C[C@H](N)[C@H](O)[C@H](C)O1` [Dox solution, doxorubicin]: the “Tumor growth compared with saline” value in data set [1] is given as “remarkably suppressed”.
